# Like-named read-outs stand apart in the source and are kept apart here.
# How the values were obtained:
# [1] = tested on: Human Coronavirus 229E; format: cell-based; conditions: HCoV-229E in MRC-5 cells, three days, CPE by MTT
# [2] = tested on: SARS-CoV-2; assay: Example 6 SARS-CoV-2 infection assay in Huh7.5 cells (nucleocapsid immunofluorescence); format: cell-based; conditions: SARS CoV-2, Huh7.5 cells, MOI 0.1, 48 hours, percent infected cells
# [3] = tested on: SARS-CoV-2; assay: Example 6 SARS-CoV-2 infection assay in TMPRSS2-Vero cells (nucleocapsid immunofluorescence); format: cell-based; conditions: SARS CoV-2, TMPRSS2-Vero cells, MOI 0.01, 32 hours, percent infected cells
# [4] = tested on: VERO E6 cells; assay: Example 4 generation of remdesivir triphosphate in Vero E6 cells (LC/MS/MS); format: in vitro ADME, monkey
# Method: In this example, Vero E6 cells were plated in 6 well plates at about 3.4×10^5 cells per well in 2 mL of media (DMEM, 10% FBS).
# Cells were then incubated at 37° C. for 24 hours. Media was then aspirated and replaced with 2 ml of control media (fresh Dulbecco's Modified Eagle's Medium (DMEM), 10% FBS) or 2 mL of media with drug at a concentration of 1 μM. Cell were incubated with the various drugs for 48 hours. The media was aspirated, the cells rinsed twice with phosphate-buffered saline (PBS), trypsinized for 5 minutes with 1 mL ATV, triturated and removed to a 15 mL centrifuge tube, rinsed with 1 mL PBS, which was also then removed to the 15 mL centrifuge tube, and the cells were triturated again. Cells were counted in a Reichert hemocytometer using two 10 μL samples, and the number of cells in each sample was determined.
# Cells were centrifuged at 1200 rpm for 10 minutes, diluent aspirated and the pellet resuspended in 250 μL of methanol/distilled water (70/30) and analyzed by LC/MS/MS. The results, which are depicted at FIG. 3, were in picomoles/10^6 cells and are the average of two or three determinations.
# [5] = format: in vivo; conditions: Syrian hamsters, sodium salt
# Method: ODBG-P-RVn in 0.1M sodium carbonate/bicarbonate buffer, pH 9.0, was administered to Syrian Hamsters by oral gavage every 12 hours for seven days. ODBG-P-RVn was present as the sodium salt.
# FIG. 5A and FIG. 5B depict the seven day oral pharmacokinetics in Syrian hamsters. Syrian hamsters were given vehicle or ODBG-P-RVn by oral gavage every 12 hours for 7 days. Groups of 3 animals received vehicle or drug at doses of 16.9 and 13.2 mg/kg. Animals were weighed daily and monitored for clinical signs.
# Analytical Methods: ODBG-P-RVn: Hamster plasma samples (10 μL) containing ODBG-P-RVn and K2EDTA as the anticoagulant were added to polypropylene tubes containing water (100 μL), internal standard solution (10 μL; 1,000 ng/mL of ODE-P-RVn in ACN:DMF (1:1, v/v)), and 10 μL of ACN:DMF (1:1, v/v). The solutions were mixed, then acidified with phosphoric acid, 85% w/v:water (1:19, v/v; 10 μL), mixed, then diluted with 200 μL of IPA, mixed, then diluted with 500 μL of water, and mixed. […] The ODBG-P-RVn extracts were analyzed using an Agilent 1200 HPLC system (Agilent, Santa Clara, CA) coupled to an API5500 mass analyzer (SCIEX, Foster City, CA). […]
# The solutions were mixed and centrifuged at 16,000 g for five minutes. […] The GS-441524 extracts were analyzed using an Acquity UPLC system (Waters, Milford, MA) coupled to a G2-S QTof mass analyzer (Waters, Milford, MA). […]
# [6] = tested on: USA WA-01 strain of SARS CoV-2; assay: Example 2 anti-coronavirus activity in Vero E6 cells (qPCR spike RNA); format: cell-based; conditions: Vero C1008, SARS CoV-2 USA WA-01, Vero E6 cells, MOI 0.1, 48 hours
# Method: Ten thousand Vero E6 cells were seeded in 100 microliters of culture medium in 96 well plates. The following day serial two-fold dilutions of antiviral compounds or the DMSO-containing vehicle were added to each well. The USA WA-01 strain of SARS CoV-2 was added to each well at a multiplicity of infection of 0.1 thirty minutes later. Cells were incubated for 48 hours, washed twice in PBS and lysed with TRIzol. RNA was extracted using Directzol micro RNA columns. RNA was made into cDNA and assayed for the SARS CoV-2 spike protein and for a housekeeping gene (RPLPO) RNA by qPCR. Data represents the average of duplicate wells. Cellular cytotoxicity was also measured in VERO E6 cells. […] Cytotoxicity (CC50) was assessed using a commercially available MTT assay.
# [7] = tested on: SARS-CoV-2 isolate USA-WA1/2020; assay: Example 3 SARS-CoV-2 infection in Vero E6 cells (qRT-PCR Spike RNA); format: cell-based; conditions: for EC50 / EC90: Severe acute respiratory syndrome coronavirus 2, Vero C1008, SARS-CoV-2 USA-WA1/2020, Vero E6 cells, MOI 0.01, 48 hours, mean±SD
# [8] = tested on: SARS-CoV-2 isolate USA-WA1/2020; assay: Example 7 SARS-CoV-2 infection in PSC-human lung cells (qRT-PCR); format: cell-based
# [9] = tested on: SARS-CoV-2 isolate USA-WA1/2020; assay: Example 7 SARS-CoV-2 infection in Calu-3 cells (qRT-PCR); format: cell-based; conditions: for EC50 / EC90: Severe acute respiratory syndrome coronavirus 2, SARS-CoV-2, Calu-3 cells, MOI 0.01, 48 hours
# [10] = tested on: SARS-CoV-2 isolate USA-WA1/2020; assay: Example 7 SARS-CoV-2 infection in Huh7.5 cells (qRT-PCR); format: cell-based; conditions: for EC50 / EC90: Severe acute respiratory syndrome coronavirus 2, SARS-CoV-2, Huh7.5 cells, MOI 0.01, 48 hours, qRT-PCR, Example 7
# [11] = tested on: SARS-CoV-2 isolate USA-WA1/2020; assay: Example 7 SARS-CoV-2 infection in Caco-2 cells (qRT-PCR); format: cell-based
# [12] = tested on: SARS-CoV-2; assay: Example 7 SARS-CoV-2 antiviral activity, summary across the five cell types; format: cell-based; conditions: Severe acute respiratory syndrome coronavirus 2; SARS-CoV-2, five cell types of Example 7; read-out: EC50, range across cell types
# [13] = Example 7 cytotoxicity, summary across all cell lines; format: cell-based; conditions: monkey, human; five cell types of Example 7, 48 hours
# Method: The cytotoxicity of each compound by incubating each of these cell lines with serial dilutions of each compound from 1.23 μM to 100 μM for 48 hours. […] The selectivity index of ODBG-P-RV ranged from 295 to 699 in the five cell types tested in this example).
# [14] = tested on: Human Coronavirus 229E; assay: Example 8 human coronavirus 229E in MRC-5 cells (CPE, MTT); format: cell-based
# Method: Human Coronavirus 229E (ATCC) was propagated and infectious units quantified by TCID50 using MRC-5 cells. For antiviral testing, approximately 10^4 MRC-5 cells were seeded per well in EMEM (10% FCS) at 37 C in a 96 well plate overnight. Medium from each well was removed and cells were infected with 100 TCID50 virus in 100 μL medium for two hours.
# Cells were washed one time with medium and then compounds or controls added at the indicated concentrations. After three days, CPE was observed under microscope and quantified using an MTT cell proliferation assay kit (Abcam) read on an ELx800, Universal Microplate reader (BIO-TEK Instruments, INC). The % Inhibition was calculated as (Atv−Acv)/(Acd−Acv)×100% where Atv indicates the absorbance of the test compounds with virus infected cells and A, and Aca indicate the absorbance of the virus control and the absorbance of the cell control, respectively. The average half-maximal effective concentration (EC50) was defined as the concentration which achieved 50% inhibition of virus-induced cytopathic effects.
# FIG. 4A and FIG. 4B: ODBG-P-RVn (15d) inhibits the human Alphacoronavirus 229E. […] Cells were infected with 229E for 2 hours followed by treatment with the indicated dose of the indicated drug for 72 hours. The relative CPE was determined by measuring cell viability using an MTT assay.
# [15] = Example 8 cytotoxicity in MRC-5 cells (CellTiter-Glo); format: cell-based; conditions: human
# Method: FIG. 4B depicts the cytotoxicity in MRC-5 cells incubated in the presence of the indicated drug at the indicated concentration for 72 hours, after which cell viability was measured by the CellTiter-Glo assay. Data points indicate the averages from 3 independent experiments performed in duplicate. Error bars represent the standard error mean (SEM).
# [16] = after intravenous infusion; cited from earlier work
# [17] = Example 7 cell viability assay (CellTiter-Glo) in Huh7.5 cells; conditions: human
# [18] = Example 7 cell viability assay (CellTiter-Glo) in Vero E6 cells; conditions: monkey
# [19] = Example 7 cell viability assay (CellTiter-Glo) in PSC-human lung cells
# [20] = tested on: SARS-CoV-2 isolate USA-WA1/2020; assay: Example 7 SARS-CoV-2 infection in Vero E6 cells (qRT-PCR); format: cell-based; conditions: Severe acute respiratory syndrome coronavirus 2, Vero C1008, SARS-CoV-2, Vero E6 cells, MOI 0.01, 48 hours
# [21] = Example 2 cellular cytotoxicity in Vero E6 cells (MTT); conditions: monkey
# [22] = Severe acute respiratory syndrome coronavirus 2, SARS-CoV-2, PSC-human lung cells, MOI 0.01, 48 hours
# [23] = Severe acute respiratory syndrome coronavirus 2, SARS-CoV-2, Caco-2 cells, MOI 0.01, 48 hours
compound,measurement,setting,value
1-O-octadecyl-2-O-benzyl-sn-glycerol-benzyl-phospho-RVn [Compound 16],EC50,[1],1500 ± 930 nM
same,EC90,[1],4270 ± 880 nM
same,EC50,[2],3540 ± 583 nM
same,EC90,[2],16400 ± 5980 nM
same,EC50,[3],7440 ± 818 nM
same,EC90,[3],15300 ± 5910 nM
"CCCCCCCCCCCCCCCCCCOC[C@H](COP(=O)(O)OC[C@H]1O[C@@](C#N)(c2ccc3c(N)ncnn23)[C@H](O)[C@@H]1O)OCc1ccccc1 [Compound 15d, 1-O-octadecyl-2-O-benzyl-glyceryl-sn-3-phospho-RVn]",synthesis of remdesivir triphosphate (RVn-TP),"[4]; exposure to 1 micromolar drug, up to 48 hours",increased progressively to 48 hours
same,tolerability / clinical signs,"[5]; oral gavage every 12 hours for seven days, 16.9 and 13.2 mg/kg","well tolerated, and no adverse clinical signs were noted"
same,time for plasma levels to fall by 50%,[5]; oral gavage,about 5 hours
"CCC(CC)COC(=O)[C@H](C)N[P@](=O)(OC[C@H]1O[C@@](C#N)(c2ccc3c(N)ncnn23)[C@H](O)[C@@H]1O)Oc1ccccc1 [RDV, Remdesivir]",EC50,[6],3160 nM
same,EC90,[6],5500 nM
same,EC50,[7],4600 nM
same,EC90,[7],8900 ± 4900 nM
same,levels of RVn-TP,"[4]; 1 μM drug, at 8 and 24 hours",below the level of quantification
same,EC50,[8]; [22],140 nM
same,EC90,[8]; [22],230 nM
same,EC50,[9],230 nM
same,EC90,[9],310 nM
same,EC50,[10],60 nM
same,EC90,[10],120 nM
same,EC50,[11]; [23],170 nM
same,EC90,[11]; [23],280 nM
same,EC50,[12],60 to 1130 nM
same,CC50 at 48 h,[13],≥ 15200 nM
same,EC50,"[14]; MRC5, 229E in MRC-5 cells, 72 hours, CPE by MTT, Example 8",40 nM
same,EC90,"[14]; MRC5, 72 h",260 nM
same,CC50 at 72 h,[15],> 50000 nM
same,persistence in plasma at virologically significant levels,[16],less than 2 hours
same,CC50 at 48.5 h,[17],15200 nM
same,CC50 at 48.5 h,[18],101000 nM
same,CC50 at 48.5 h,[19],32700 nM
"N#C[C@@]1(c2ccc3c(N)ncnn23)O[C@H](CO)[C@@H](O)[C@H]1O [RVn, 2-C-(4-aminopyrrolo[2,1-f][1,2,4]triazin-7-yl)-2,5-anhydro-D-altrononitrile]",EC50,[6],1560 nM
same,EC90,[6],2690 nM
same,Selectivity,"[7]; Selectivity index, CC50/EC50, Vero E6 cells, Example 3",>58.8
same,EC50,[7],1700 nM
same,EC90,[7],3200 ± 770 nM
same,EC50,[20],380 nM
same,EC90,[20],770 nM
same,Selectivity,"[8]; Selectivity index CC50/EC50, PSC-human lung cells",>135
same,EC50,[8]; [22],740 nM
same,Selectivity,"[9]; Selectivity index CC50/EC50, Calu-3 cells",>666
same,EC50,[9],150 nM
same,EC90,[9],180 nM
same,Selectivity,"[10]; Selectivity index CC50/EC50, Huh7.5 cells",>312
same,EC50,[10],320 nM
same,EC90,[10],730 nM
same,Selectivity,"[11]; Selectivity index CC50/EC50, Caco-2 cells",>104
same,EC50,[11]; [23],960 nM
same,CC50,[21],> 50000 nM

# From US12173029B2, “Antiviral prodrugs, pharmaceutical formulations, and methods” (priority 2020, dated 2024)
